{"source": "patent US12661415B2", "about": "“Isoindolinone compounds and imaging agents for imaging Huntingtin protein” (CHDI Foundation, Inc., priority 2021, dated 2026)", "key": {"[1]": {"target": "T1, MBP-HTT(1-89)Q46-His(6×) (Exon1-Q46) protein aggregates (Homo sapiens, UniProt P42858, INS38QQQQQQQQQQQQQQQQQQQQQQQQQ)", "T1 construct": "MBP-HTT(1-89)Q46-His(6×); His(6×) (C); made in house", "T1 sequence (P42858 with tags, fused parts or gaps with the stated changes)": "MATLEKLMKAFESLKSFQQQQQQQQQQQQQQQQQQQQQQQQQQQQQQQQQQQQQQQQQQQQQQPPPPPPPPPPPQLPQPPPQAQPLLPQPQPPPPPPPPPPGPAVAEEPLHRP", "assay": "Exon1-Q46 radioligand binding assay (RBA)", "details": "aggregated Exon1-Q46 1 μM; 0.3 nM ligand [3H3-methyl]-5-((5-methoxypyridin-2-yl)methoxy)-2-(pyrazin-2-yl)benzo[d]oxazole; 60 minutes at 37° C.; read-out: Potency Range (IC50)", "procedure": "Exon1-Q46 Radioligand Binding Assay\nFor radioligand binding assays (RBA) MBP-HTT(1-89)Q46-His(6×) (“Exon1-Q46”) protein was generated based on a previous publication (Scherzinger et al. Cell, Vol. 90, 549-558, Aug. 8, 1997). For experiments 30 μM MBP-Exon1-Q46 was incubated with 150 μg/mL thrombin in assay buffer (150 mM NaCl, 50 mM Tris pH 8.0) and 2 mM CaCl2 for 16 hours at 37° C. Aggregated Exon1-Q46 was pelleted by centrifugation for 5 minutes at 13,000 rpm in a bench top centrifuge and re-dissolved in the same volume of assay buffer. Test compounds were prepared by titration in DMSO at 11 concentrations from 63 μM to 2 nM. For the RBA, Exon1-Q46 protein aggregates and test compounds were pre-incubated in assay buffer for 20 minutes at room temperature, in 100 μL/well in a 96-well plate (pp, round bottom). Then, ligand was added in 50 μL/well and incubated for 60 minutes at 37° C. Final assay concentrations were 1 μM to 30 pM test compound, 1 μM Exon1-Q46 protein (equivalent monomer concentration) and 0.3 nM ligand [^3H3-methyl]-5-((5-methoxypyridin-2-yl)methoxy)-2-(pyrazin-2-yl)benzo[d]oxazole. Samples were transferred onto GF/B filter plates and washed 2× with 200 μL PBS using a Filtermate Harvester. After drying filter plates for 1 hour at 55° C., the back of the plates were sealed with foil and 30 μL/well scintillation fluid (Packard MicroScint 40) added, incubated for 15 minutes in the dark and counted in a MicroBeta reader. For analysis, replicate data from independent assay plates were normalized towards 0% and 100% inhibition using control wells of vehicle (0% inhibition) and 1 μM unlabelled [^3H3-methyl]-5-((5-methoxypyridin-2-yl)methoxy)-2-(pyrazin-2-yl)benzo[d]oxazole (100% inhibition). IC50 values were determined with a sigmoidal inhibition model with four variables (top, bottom, slope, IC50) in a global fit using the normalized replicate data.\nThe results for various example compounds were as provided in the table below (+++<100 nM; ++100−500 nM; +>500 nM; ND: not determined): […]"}, "[2]": {"assay": "Unbound brain fraction (fu,brain) in mouse brain by equilibrium dialysis", "type": "in vitro ADME", "details": "20% mouse brain homogenate, 5 μM, equilibrium dialysis 6 h at 37° C., average of triplicate", "procedure": "Compounds were tested for unbounded brain fraction (or free fraction in brain, fu,brain). It is an accepted standard in the CNS PET imaging field that compounds with low unbound fraction in brain (<5%) likely have high non-specific binding background that is undesirable for the detection of target binding. As a result, fu,brain is an important property in the design of PET ligands for brain imaging [see Zhang et al., Design and selection parameters to accelerate the discovery of novel central nervous system positron emission tomography (PET) ligands and their application in the development of a novel phosphodiesterase 2A PET ligand. J Med Chem 2013, 56 (11), 4568-79; Liu et al., Imaging Mutant Huntingtin Aggregates: Development of a Potential PET Ligand. J Med Chem 2020, 63 (15), 8608-8633].\nDetermining fu,brain in Mouse Brain by Equilibrium Dialysis. Dialysis membranes (12-14 kDa) (HTDialysis, Connecticut) were soaked in phosphate buffer (10 mM potassium phosphate and 0.8% sodium chloride buffer, pH 7.4 at 37° C.) for a minimum of 1 h, at this time ethanol was added (final concentration of 20% v/v) and membranes continued to soak for 30 min Mouse brain tissue was diluted in phosphate buffer in a […] (w/v) and homogenised using a Precellys 24 (Stretton Scientific, UK) to achieve a final concentration of 20% brain homogenate.\nTest compounds prepared as DMSO stocks at 0.5 mM are diluted into brain homogenate to achieve 5 μM final substrate concentration (1% DMSO) and a t=0 sample was prepared by sampling 50 μL of into 400 μL of quench solution (Acetonitrile containing 0.1% formic acid and sulfisoxazole/tolbutamide/imipramine/labetalol 200 nM). Samples were matrix matched with the addition of 50 μL of assay buffer. The HTDialysis Teflon blocks (HTDialysis, Connecticut) were assembled with pre-soaked membrane between each receiver and donor well and clamped in the stainless steel pressure plate (HTDialysis, Connecticut). The lower compartment (acceptor side) was dosed with 120 μL of buffer and the upper compartment (donor side) was dosed with 120 μL of compound in homogenate. All test compounds and controls were completed in triplicate. The HT dialysis plate was sealed and incubated for 6 h at 37° C. shaking at 250 rpm.\nFollowing the incubation, 50 μL of sample was removed from all donor and acceptor wells and transferred into a quench plate containing 400 μL of quench solution. All samples were matrix matched with 50 μL of the alternate blank matrix. Analytical samples were diluted 1:1 with water using the Janus Robot and analysed by LC-MS/MS.\nPeak areas of donor and acceptor compartments were compared to determine percent unbound (% fu) and the average of triplicate measurements was reported. Reference T0 sample was used to calculate sample recovery (%). Control compounds were compared with historic and literature values to ensure assay functionality."}}, "data": [{"smiles": "Cn1nc(N2Cc3cc(OCc4ccc(OCCF)cn4)ccc3C2=O)ccc1=O", "note": "[Compound 2-1, 5-{[5-(2-Fluoroethoxy)pyridin-2-yl]methoxy}-2-(1-methyl-6-oxo-1,6-dihydro-pyridazin-3-yl)-2,3-dihydro-1H-isoindol-1-one]", "values": [{"measurement": "IC50", "setting": "[1]", "result": "< 100", "unit": "nM"}, {"measurement": "Mean Free Brain Fraction (%)", "setting": "[2]", "result": 14.3, "unit": "%"}]}, {"smiles": "COc1ccc(COc2ccc3c(c2)CN(c2ccc(=O)n(C)n2)C3=O)nc1F", "note": "[Compound 1-13, 5-[(6-Fluoro-5-methoxy-2-pyridyl)methoxy]-2-(1-methyl-6-oxo-pyridazin-3-yl)isoindolin-1-one]", "values": [{"measurement": "IC50", "setting": "[1]", "result": "< 100", "unit": "nM"}, {"measurement": "Mean Free Brain Fraction (%)", "setting": "[2]", "result": 7.0, "unit": "%"}]}, {"smiles": "COc1cc(COc2ccc3c(c2)CN(c2ccc(=O)n(C)n2)C3=O)ncc1F", "note": "[Compound 3-1, 5-[(5-Fluoro-4-methoxypyridin-2-yl)methoxy]-2-(1-methyl-6-oxo-1,6-di-hydropyridazin-3-yl)-2,3-dihydro-1H-isoindol-1-one]", "values": [{"measurement": "IC50", "setting": "[1]", "result": "< 100", "unit": "nM"}, {"measurement": "Mean Free Brain Fraction (%)", "setting": "[2]", "result": 9.7, "unit": "%"}]}, {"smiles": "O=C1c2ccc(OCc3ccc(F)cn3)cc2CN1c1ccc(=O)[nH]n1", "note": "[Compound 9-1, 5-[(5-Fluoro-2-pyridyl)methoxy]-2-(6-oxo-1H-pyridazin-3-yl)isoindolin-1-one]", "values": [{"measurement": "IC50", "setting": "[1]", "result": "< 100", "unit": "nM"}, {"measurement": "Mean Free Brain Fraction (%)", "setting": "[2]", "result": 6.7, "unit": "%"}]}, {"smiles": "COc1ccc(COc2ccc3c(c2)CN(c2ccc(=O)n(CF)n2)C3=O)nc1", "note": "[Compound 8-1, 2-(1-(Fluoromethyl)-6-oxo-1,6-dihydropyridazin-3-yl)-5-((5-methoxypyridin-2-yl)methoxy)isoindolin-1-one]", "values": [{"measurement": "IC50", "setting": "[1]", "result": "< 100", "unit": "nM"}, {"measurement": "Mean Free Brain Fraction (%)", "setting": "[2]", "result": 7.4, "unit": "%"}]}, {"smiles": "COc1ccc(COc2ccc3c(c2F)CN(c2ccc(=O)n(C)n2)C3=O)nc1", "note": "[Compound 12-2, 4-Fluoro-5-[(5-methoxypyridin-2-yl)methoxy]-2-(1-methyl-6-oxo-1,6-dihydropyridazin-3-yl)-2,3-dihydro-1H-isoindol-1-one]", "values": [{"measurement": "IC50", "setting": "[1]", "result": "< 100", "unit": "nM"}, {"measurement": "Mean Free Brain Fraction (%)", "setting": "[2]", "result": 5.3, "unit": "%"}]}, {"smiles": "COc1ccc(COc2cc3c(cc2F)CN(c2ccc(=O)n(C)n2)C3=O)nc1", "note": "[Compound 12-4, 5-Fluoro-6-[(5-methoxypyridin-2-yl)methoxy]-2-(1-methyl-6-oxo-1,6-dihydropyridazin-3-yl)-2,3-dihydro-1H-isoindol-1-one]", "values": [{"measurement": "IC50", "setting": "[1]", "result": "< 100", "unit": "nM"}, {"measurement": "Mean Free Brain Fraction (%)", "setting": "[2]", "result": 9.8, "unit": "%"}]}, {"smiles": "COc1cnc(COc2cnc3c(c2)CN(c2ccc(=O)n(C)n2)C3=O)c(F)c1", "note": "[Compound 12-8, 6-{3-[(3-Fluoro-5-methoxypyridin-2-yl)methoxy]-7-oxo-5H,6H,7H-pyrrolo[3,4-b]pyridin-6-yl}-2-methyl-2,3-dihydropyridazin-3-one]", "values": [{"measurement": "IC50", "setting": "[1]", "result": "< 100", "unit": "nM"}, {"measurement": "Mean Free Brain Fraction (%)", "setting": "[2]", "result": 65.0, "unit": "%"}]}, {"smiles": "Cn1nc(N2Cc3cc(O)ccc3C2=O)ccc1=O", "note": "[Compound 1-5, 5-Hydroxy-2-(1-methyl-6-oxo-1,6-dihydropyridazin-3-yl)-2,3-dihydro-1H-isoindol-1-one]", "values": [{"measurement": "IC50", "setting": "[1]", "result": "< 100", "unit": "nM"}]}, {"smiles": "COc1cnc(COc2ccc3c(c2)CN(c2ccc(=O)n(C)n2)C3=O)cc1F", "note": "[Compound 1-14, 5-[(4-Fluoro-5-methoxypyridin-2-yl)methoxy]-2-(1-methyl-6-oxo-1,6-dihydropyridazin-3-yl)-2,3-dihydro-1H-isoindol-1-one]", "values": [{"measurement": "Mean Free Brain Fraction (%)", "setting": "[2]", "result": 12.0, "unit": "%"}]}, {"smiles": "[2H]C([2H])(F)C([2H])([2H])Oc1ccc(COc2cnc3c(c2)CN(c2ccc(=O)n(C)n2)C3=O)nc1", "note": "[Compound 12-9, 6-[3-([5-[2-Fluoro(1,1,2,2-^2H4)ethoxy]pyridin-2-yl]methoxy)-7-oxo-5H,6H,7H-pyrrolo[3,4-b]pyridin-6-yl]-2-methyl-2,3-dihydropyridazin-3-one]", "values": [{"measurement": "IC50", "setting": "[1]", "result": "< 100", "unit": "nM"}]}, {"smiles": "COc1ccc(COc2ccc3c(c2F)C(=O)N(c2ccc(=O)n(C)n2)C3)nc1", "note": "[Compound 12-10, 7-Fluoro-6-[(5-methoxypyridin-2-yl)methoxy]-2-(1-methyl-6-oxo-1,6-dihydropyridazin-3-yl)-2,3-dihydro-1H-isoindol-1-one]", "values": [{"measurement": "IC50", "setting": "[1]", "result": "< 100", "unit": "nM"}, {"measurement": "Mean Free Brain Fraction (%)", "setting": "[2]", "result": 16.4, "unit": "%"}]}, {"smiles": "[2H]C([2H])(Oc1ccc(COc2ccc3c(c2)CN(c2ccc(=O)n(C)n2)C3=O)nc1)C([2H])([2H])OS(=O)(=O)c1ccc(C)cc1", "note": "[Compound 1-9, 2-{[6-({[2-(1-Methyl-6-oxo-1,6-dihydropyridazin-3-yl)-1-oxo-2,3-dihydro-1H-isoindol-5-yl]oxy}methyl)pyridin-3-yl]oxy}(1,1,2,2-^2H4)ethyl 4-methylbenzene-1-sulfonate]", "values": [{"measurement": "IC50", "setting": "[1]", "result": "< 100", "unit": "nM"}]}, {"smiles": "Cn1nc(N2Cc3cc(OCc4ccc(O)cn4)ccc3C2=O)ccc1=O", "note": "[Compound 4-1, 5-[(5-Hydroxypyridin-2-yl)methoxy]-2-(1-methyl-6-oxo-1,6-dihydropyridazin-3-yl)-2,3-dihydro-1H-isoindol-1-one]", "values": [{"measurement": "IC50", "setting": "[1]", "result": "< 100", "unit": "nM"}]}, {"smiles": "Cn1nc(N2Cc3cc(OCc4ccc(OCCF)cn4)cnc3C2=O)ccc1=O", "note": "[Compound 12-6, 6-(3-{[5-(2-Fluoroethoxy)pyridin-2-yl]methoxy}-7-oxo-5H,6H,7H-pyrrolo[3,4-b]pyridin-6-yl)-2-methyl-2,3-dihydropyridazin-3-one]", "values": [{"measurement": "IC50", "setting": "[1]", "result": "< 100", "unit": "nM"}, {"measurement": "Mean Free Brain Fraction (%)", "setting": "[2]", "result": 50.0, "unit": "%"}]}, {"smiles": "COc1ccc(COc2cc3c(cc2F)CN(c2cnc(OC)cn2)C3=O)nc1", "note": "[Compound 14-2, 5-Fluoro-2-(5-methoxypyrazin-2-yl)-6-((5-methoxypyridin-2-yl)-methoxy)isoindolin-1-one]", "values": [{"measurement": "IC50", "setting": "[1]", "result": "< 100", "unit": "nM"}, {"measurement": "Mean Free Brain Fraction (%)", "setting": "[2]", "result": 0.7, "unit": "%"}]}, {"smiles": "COc1ccc(COc2cc3c(cc2F)C(=O)N(c2ccc(=O)[nH]n2)C3)nc1", "note": "[Compound 13-1, 6-Fluoro-5-((5-methoxypyridin-2-yl)methoxy)-2-(6-oxo-1,6-dihydropyridazin-3-yl)isoindolin-1-one]", "values": [{"measurement": "IC50", "setting": "[1]", "result": "< 100", "unit": "nM"}, {"measurement": "Mean Free Brain Fraction (%)", "setting": "[2]", "result": 6.6, "unit": "%"}]}, {"smiles": "COc1ccc(COc2ccc3c(c2)CN(Cc2ccc(OC)nc2)C3=O)nc1", "note": "[Compound 7-1, 5-[(5-Methoxypyridin-2-yl)methoxy]-2-[(6-methoxypyridin-3-yl)methyl]-2,3-dihydro-1H-isoindol-1-one]", "values": [{"measurement": "IC50", "setting": "[1]", "result": "100 to 500", "unit": "nM"}]}, {"smiles": "COc1ccc(COc2ccc3c(c2)CN(c2ccc(=O)n(C)n2)C3)nc1", "note": "[Comparative Compound 1, reference compound]", "values": [{"measurement": "Mean Free Brain Fraction (%)", "setting": "[2]", "result": 1.3, "unit": "%"}]}, {"smiles": "[2H]C([2H])(F)C([2H])([2H])Oc1ccc(COc2ccc3c(c2)CN(c2ccc(=O)[nH]n2)C3=O)nc1", "note": "[Compound 9-2, 5-((5-(2-Fluoroethoxy-1,1,2,2-^2H4)pyridin-2-yl)methoxy)-2-(6-oxo-1,6-dihydropyridazin-3-yl)isoindolin-1-one]", "values": [{"measurement": "IC50", "setting": "[1]", "result": "< 100", "unit": "nM"}]}]}
